Results from patent publication US20240335431A1, “1-H-PYRROLO[2,3-c]PYRIDINE COMPOUNDS” (Acerta Pharma B.V., priority 2023, published 2024).
Read-outs that look alike come from different tables or passages of the source.

Legend:
[1] = test system: MV4;11 cells; assay: Proliferation assay, MV4;11 (CellTiter-Glo, 7 days); assay type: cell-based, human; conditions: read-out: MV-4-11 IC50
Summary of the method: (§1)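 Cells were seeded at line-specific low densities for linear growth, exposed to 3.16-fold serial compound dilutions at 0.1% DMSO, and incubated 7 days at 37 °C, 5% CO2. Viability was read by CellTiter-Glo 2.0 luminescence; IC50 came from one-site fits of % inhibition, normalized between DMSO-treated cells (100%) and a day-0 plate (0%).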

[2] = Caco-2 cell monolayers intrinsic permeation assay in the presence of efflux inhibitors; assay type: in vitro ADME; conditions: Caco-2, with efflux inhibitors
Description: Caco-2 cells were obtained from American Type Culture Collection (ATCC). HEPES, penicillin, streptomycin, bovine serum albumin (BSA) were obtained from Beijing Xinjingke Biotechnology Co, Ltd. Fetal bovine serum, Hank's balanced salt solution (HBSS) and non-essential amino acids (NEAA) were purchased from Gibco. Dulbecco's Modified Eagle's Medium (DMEM) was purchased from Corning and MES from Sigma. HTS Transwell-24 permeable supports were purchased from Corning. Zosuquidar and Ko-143 were obtained from MedChemExpress and Benzbromarone from Sigma.
The Caco-2 cell culture medium consisted of DMEM with high glucose and L-glutamine supplemented with 10% FBS, 0.1 mg/mL streptomycin, 100 units of penicillin, 0.6 mg/mL kanamycin sulfate and 1×NEAA. […] culture medium was added to each Transwell insert with 800 mL added to each well of the reservoir. After incubation at 37° C. in 5% CO2 for 1 hour, the plates were ready for seeding.
The cells were cultivated in T-75 flasks at 37° C., 5% CO2, 95% relative humidity. At 80 to 90% confluence, cells were treated with trypsin/EDTA treatment until they became detached. The trypsin/EDTA was inactivated by adding excess serum containing medium. The cell suspension was centrifuged at 120 g for 10 minutes followed by resuspension of the cell pellet in seeding medium at a cell density of 7.92×10^5 cells/mL.
[…] of the resulting cell suspension was added to each well of the Transwell plate and incubated for 14 to 18 days, with medium replaced every other day. After incubation for 14 to 18 days, the cells should have reached confluence and should be tested for electrical resistance using a Millicel Epithelial Volt-Ohm measuring system (Millipore).
The cell monolayers were washed twice with pre-warmed HBSS and incubated at 37° C. for 30 minutes under gentle shaking (480 rpm).
The compound under test was presented as a 10 mM DMSO stock solution. 2 mL of the 10 mM stock was added to 8 mL DMSO to produce a 2 mM stock. 2 mL was added to 398 mL of HBSS containing 10 mM Zosuquidar, 30 mM Benzbromarone and 2 mM KO-143 to make a […] solution.
210 mL of the test compound solution was added to the apical compartment of the Transwell plate, with a 10 mL sample taken to act as the time 0 sample. The wells of the receiver (basolateral) compartment were filled with 800 mL HBSS (containing the efflux inhibitors). The plates were incubated at 37° C. with shaking at 480 rpm for 120 minutes with sampling at 45 and 120 minutes.
At each sampling time (0, 45 and 120 minutes) 10 mL was removed from the apical compartment and add to 90 mL (HBSS containing the efflux inhibitors). 100 mL was removed from each basolateral compartment. 3 volumes of cold acetonitrile containing internal standard was added to each sample and vortex mixed for 10 minutes at 100 rpm. Samples were then centrifuged at 400 rpm for 20 minutes. 50 mL of the supernatant was taken for LC/MS/MS analysis to determine compound concentration.
The apparent permeability (Papp), in units of centimetre per second, were calculated for Caco-2 drug transport using the following equation: […]
Where CR is the concentration of compound in the receiver side at the respective time point, CD is the concentration of compound in the donor side at the respective timepoint. Area is the surface area of the membrane and time is 4500 seconds (75×60 seconds).

[3] = test system: HEL cells; assay: Proliferation assay, HEL control cell line (CellTiter-Glo, 7 days); assay type: cell-based, human
Summary of the method: as §1

IC50 ([1]; Homo sapiens, MV4-11, 168 h) [nM]	Papp A→B [2] [×10⁻⁶ cm/s]	Structure (SMILES)	IC50 ([3]; Homo sapiens, HEL, 168 h) [nM]	IC50 [3] [nM]	IC50 [1] [nM]
25	2.6	CC(C)N(C(=O)c1cc(F)ccc1-n1cc(C(=O)C2CCN(C(=O)[C@H]3NC[C@@H]4C[C@@H]43)CC2)c2ccncc21)C(C)C [Example 19, 2-(3-(1-((1S,2S,5R)-3-Azabicyclo[3.1.0]hexane-2-carbonyl)piperidine-4-carbonyl)-1H-pyrrolo[2,3-c]pyridin-1-yl)-5-fluoro-N,N-diisopropylbenzamide]	> 10000		
37	0.3	O=C(c1cn(-c2ccc(F)cc2-c2cncnc2C2CC2)c2cnccc12)C1CCN(C(=O)[C@H]2N[C@@H]3CC[C@H]2C3)CC1 [Example 40, (1-((1R,3S,4S)-2-Azabicyclo[2.2.1]heptane-3-carbonyl)piperidin-4-yl)(1-(2-(4-cyclopropylpyrimidin-5-yl)-4-fluorophenyl)-1H-pyrrolo[2,3-c]pyridin-3-yl)methanone]	> 10000		
37	0.3	CCN(C(=O)c1cc(F)ccc1-n1c(C)c(C(=O)C2CCN(C(=O)[C@H]3N[C@@H]4CC[C@H]3C4)CC2)c2ccncc21)C(C)C [Example 46, 2-(3-(1-((1R,3S,4S)-2-Azabicyclo[2.2.1]heptane-3-carbonyl)piperidine-4-carbonyl)-2-methyl-1H-pyrrolo[2,3-c]pyridin-1-yl)-N-ethyl-5-fluoro-N-isopropylbenzamide]	> 10000		
39	1.2	CCN(C(=O)c1cc(F)ccc1-n1c(C)c(C(=O)C2CCN(C(=O)[C@@H]3CCC(C)(C)N3)CC2)c2ccncc21)C(C)C (single isomer, unassigned) [Example 50-2]		> 10000	
	3.7	Cc1c(C(=O)C2CCN(C(=O)[C@H]3NC[C@@H]4C[C@@H]43)CC2)c2ccncc2n1-c1ccc(F)cc1C(=O)N(C(C)C)C(C)C (single isomer, unassigned) [Example 55-1]	> 10000		1720
20	1.5	COCCN(C)CCC[C@H](C(C)C)N1CCC(C(=O)c2cn(-c3ccc(F)cc3C(=O)N(C(C)C)C(C)C)c3cnccc23)CC1 (racemic) [Example 23, rac-(R)-5-Fluoro-N,N-diisopropyl-2-(3-(1-(6-((2-methoxyethyl)(methyl)amino)-2-methylhexan-3-yl)piperidine-4-carbonyl)-1H-pyrrolo[2,3-c]pyridin-1-yl)benzamide]	> 10000		
33	0.8	CCN(C(=O)c1cc(F)ccc1-n1cc(C(=O)C2CCN(C(=O)[C@H]3N[C@H]4C[C@@H]3[C@@H](F)C4)CC2)c2ccncc21)C(C)C [Example 30, N-Ethyl-5-fluoro-2-(3-(1-((1S,3S,4S,5S)-5-fluoro-2-azabicyclo[2.2.1]heptane-3-carbonyl)piperidine-4-carbonyl)-1H-pyrrolo[2,3-c]pyridin-1-yl)-N-isopropylbenzamide]	> 10000		

Continued, compound first:

Structure (SMILES)	IC50 ([1]; Homo sapiens, MV4-11, 168 h) [nM]	Papp A→B [2] [×10⁻⁶ cm/s]	IC50 ([3]; Homo sapiens, HEL, 168 h) [nM]	IC50 [3] [nM]	IC50 [1] [nM]
CC(C)N(C(=O)c1cc(F)ccc1-n1cc(C(=O)[C@@H]2CCN(C[C@H]3CC[C@H](NS(C)(=O)=O)CC3)C2)c2ccncc21)C(C)C [Example 4, 5-Fluoro-N,N-diisopropyl-2-(3-((R)-1-(((1r,4R)-4-(methylsulfonamido)-cyclohexyl)methyl)pyrrolidine-3-carbonyl)-1H-pyrrolo[2,3-c]pyridin-1-yl)benzamide]	132	2	> 10000		
CC(C)N(C(=O)c1cc(F)ccc1-n1cc(C(=O)C2CCN(C(=O)[C@@H]3CCC4(CC4)N3)CC2)c2ccncc21)C(C)C [Example 24, (S)-2-(3-(1-(4-Azaspiro[2.4]heptane-5-carbonyl)piperidine-4-carbonyl)-1H-pyrrolo[2,3-c]pyridin-1-yl)-5-fluoro-N,N-diisopropylbenzamide]	20	18.2	> 10000		
CCN(C(=O)c1cc(F)ccc1-n1cc(C(=O)C2CN(C(=O)[C@H]3NC4CCC3CC4)C2)c2ccncc21)C(C)C [Example 9, (S)-2-(3-(1-(2-Azabicyclo[2.2.2]octane-3-carbonyl)azetidine-3-carbonyl)-1H-pyrrolo[2,3-c]pyridin-1-yl)-N-ethyl-5-fluoro-N-isopropylbenzamide]	100	0.5	> 10000		
CCN(C(=O)c1cc(F)ccc1-n1cc(C(=O)C2CN(C(=O)[C@H]3N[C@@H]4CC[C@H]3C4)C2)c2ccncc21)C(C)C [Example 8, 2-(3-(1-((1R,3S,4S)-2-Azabicyclo[2.2.1]heptane-3-carbonyl)azetidine-3-carbonyl)-1H-pyrrolo[2,3-c]pyridin-1-yl)-N-ethyl-5-fluoro-N-isopropylbenzamide]	100	0.2	> 10000		
CC(C)(F)c1ncccc1-c1cc(F)ccc1-n1cc(C(=O)C2CN(C(=O)[C@H]3N[C@@H]4CC[C@H]3C4)C2)c2ccncc21 [Example 13, (1-((1R,3S,4S)-2-Azabicyclo[2.2.1]heptane-3-carbonyl)azetidin-3-yl)(1-(4-fluoro-2-(2-(2-fluoropropan-2-yl)pyridin-3-yl)phenyl)-1H-pyrrolo[2,3-c]pyridin-3-yl)methanone]	34	1.7	> 10000		
CC(C)N(C(=O)c1cc(F)ccc1-n1cc(C(=O)[C@H]2CCN(C(=O)[C@H]3N[C@@H]4CC[C@H]3C4)C2)c2ccncc21)C(C)C [Example 2, 2-(3-((S)-1-((1R,3S,4S)-2-Azabicyclo[2.2.1]heptane-3-carbonyl)pyrrolidine-3-carbonyl)-1H-pyrrolo[2,3-c]pyridin-1-yl)-5-fluoro-N,N-diisopropylbenzamide]	97	0.4	> 10000		
CC(C)N(C(=O)c1cc(F)ccc1-n1cc(C(=O)C2CCN(C(=O)[C@H]3N[C@@H]4CC[C@H]3C4)CC2)c2ccncc21)C(C)C [Example 16, 2-(3-(1-((1R,3S,4S)-2-Azabicyclo[2.2.1]heptane-3-carbonyl)piperidine-4-carbonyl)-1H-pyrrolo[2,3-c]pyridin-1-yl)-5-fluoro-N,N-diisopropylbenzamide]	29	0.6	> 10000		
CC(C)N(C(=O)c1cc(F)ccc1-n1cc(C(=O)C2CCN(C(=O)[C@@H]3CC4(CC4)CN3)CC2)c2ccncc21)C(C)C [Example 26, (S)-2-(3-(1-(5-Azaspiro[2.4]heptane-6-carbonyl)piperidine-4-carbonyl)-1H-pyrrolo[2,3-c]pyridin-1-yl)-5-fluoro-N,N-diisopropylbenzamide]	50	0.8	> 10000		
CC(C)N(C(=O)c1cc(F)ccc1-n1cc(C(=O)C2CCN(C[C@H]3CC[C@H](NS(C)(=O)=O)CC3)CC2)c2ccncc21)C(C)C [Example 17, 5-Fluoro-N,N-diisopropyl-2-(3-(1-(((1r,4r)-4-(methylsulfonamido)cyclohexyl)-methyl)piperidine-4-carbonyl)-1H-pyrrolo[2,3-c]pyridin-1-yl)benzamide]	320	1.8	> 10000		
CCN(C(=O)c1cc(F)ccc1-n1c(C)c(C(=O)C2CCN(C(=O)[C@@H]3CCC4(CC4)N3)CC2)c2ccncc21)C(C)C (single isomer, unassigned) [Example 49-2]		6.3		> 10000	34
CC(C)c1ncccc1-c1cc(F)ccc1-n1cc(C(=O)C2CN(C(=O)[C@H]3N[C@@H]4CC[C@H]3C4)C2)c2ccncc21 [Example 10, (1-((1R,3S,4S)-2-Azabicyclo[2.2.1]heptane-3-carbonyl)azetidin-3-yl)(1-(4-fluoro-2-(2-isopropylpyridin-3-yl)phenyl)-1H-pyrrolo[2,3-c]pyridin-3-yl)methanone]	24	2.6	> 10000		
